Data on six molecules can be found in the supplement of paper PMC10307832.

SMILES strings stand for the structures.

One assay relates to LK-2. The assay can be described thus: relative viability (nuclei count vs DMSO), 5 days (fraction); higher = more cells survive. Conditions: first compound 0.253 µM. A digest of the protocol:
(§1)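 Dosing by pin tool came one day after lung cancer cell lines were seeded in 1536-well plates, using either one drug or a fixed anchor-drug dose plus five library-drug doses (not always all listed) in √10 steps. After 5 days, nuclei were counted on 4× images. Relative viability is treated-well nuclei count divided by vehicle-well nuclei count, and values are medians of duplicate plates.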
For `Nc1cccc2c1CN(C1CCC(=O)NC1=O)C2=O` (stereo not drawn) [Lenalidomide] + Nc1ncn([C@H]2C[C@H](O)[C@@H](CO)O2)c(=O)n1 [Decitabine] (partner 2 µM), the relative viability was 0.312.
The molecule `Nc1cccc2c1CN(C1CCC(=O)NC1=O)C2=O` (stereo not drawn) [Lenalidomide] + N=C(N)NC(=N)NCCc1ccccc1 [Phenformin] (partner 250 µM) gave a relative viability of 0.575.
Take `Nc1cccc2c1CN(C1CCC(=O)NC1=O)C2=O` (stereo not drawn) [Lenalidomide] + Nc1nc2[nH]cc(CCc3ccc(C(=O)N[C@@H](CCC(=O)O)C(=O)O)cc3)c2c(=O)[nH]1 [Pemetrexed] (partner 0.2 µM): the relative viability was found to be 0.301.
Regarding `Nc1cccc2c1CN(C1CCC(=O)NC1=O)C2=O` (stereo not drawn) [Lenalidomide] + CC(=O)c1c(C)c2cnc(Nc3ccc(N4CCNCC4)cn3)nc2n(C2CCCC2)c1=O [Palbociclib] (partner 0.5 µM), the relative viability was determined as 0.575.
Turning to `Nc1cccc2c1CN(C1CCC(=O)NC1=O)C2=O` (stereo not drawn) [Lenalidomide] + O=C(CCCCCCC(=O)Nc1ccccc1)NO [Vorinostat] (partner 1 µM), the relative viability was found to be 0.339.
The molecule `Nc1cccc2c1CN(C1CCC(=O)NC1=O)C2=O` (stereo not drawn) [Lenalidomide] + COc1cccc2cc(-c3nc([C@H]4CC[C@H](C(=O)O)CC4)n4ncnc(N)c34)[nH]c12 [OSI-027] (partner 0.5 µM) had a relative viability of 0.215.

The assay is the same for the next values; noted with them: first compound 0.8 µM.
Regarding `Nc1cccc2c1CN(C1CCC(=O)NC1=O)C2=O` (stereo not drawn) [Lenalidomide] + Nc1ncn([C@H]2C[C@H](O)[C@@H](CO)O2)c(=O)n1 [Decitabine] (partner 2 µM), the relative viability was found to be 0.177.
`Nc1cccc2c1CN(C1CCC(=O)NC1=O)C2=O` (stereo not drawn) [Lenalidomide] + N=C(N)NC(=N)NCCc1ccccc1 [Phenformin] (partner 250 µM) showed a relative viability of 0.262.
Regarding `Nc1cccc2c1CN(C1CCC(=O)NC1=O)C2=O` (stereo not drawn) [Lenalidomide] + Nc1nc2[nH]cc(CCc3ccc(C(=O)N[C@@H](CCC(=O)O)C(=O)O)cc3)c2c(=O)[nH]1 [Pemetrexed] (partner 0.2 µM), the relative viability came to 0.167.
Same read-out and setting: under `Nc1cccc2c1CN(C1CCC(=O)NC1=O)C2=O` (stereo not drawn) [Lenalidomide] + CC(=O)c1c(C)c2cnc(Nc3ccc(N4CCNCC4)cn3)nc2n(C2CCCC2)c1=O [Palbociclib] (partner 0.5 µM) stands 0.734.
The same measure, in the same setting: under `Nc1cccc2c1CN(C1CCC(=O)NC1=O)C2=O` (stereo not drawn) [Lenalidomide] + O=C(CCCCCCC(=O)Nc1ccccc1)NO [Vorinostat] (partner 1 µM) stands 0.252.
On to `Nc1cccc2c1CN(C1CCC(=O)NC1=O)C2=O` (stereo not drawn) [Lenalidomide] + COc1cccc2cc(-c3nc([C@H]4CC[C@H](C(=O)O)CC4)n4ncnc(N)c34)[nH]c12 [OSI-027] (partner 0.5 µM), for which the relative viability is 0.19.

Still in this assay, the particulars now being: first compound 2.53 µM.
For the molecule `Nc1cccc2c1CN(C1CCC(=O)NC1=O)C2=O` (stereo not drawn) [Lenalidomide] + Nc1ncn([C@H]2C[C@H](O)[C@@H](CO)O2)c(=O)n1 [Decitabine] (partner 2 µM), the relative viability was found to be 0.36.
As for `Nc1cccc2c1CN(C1CCC(=O)NC1=O)C2=O` (stereo not drawn) [Lenalidomide] + N=C(N)NC(=N)NCCc1ccccc1 [Phenformin] (partner 250 µM), the relative viability was 0.656.
`Nc1cccc2c1CN(C1CCC(=O)NC1=O)C2=O` (stereo not drawn) [Lenalidomide] + Nc1nc2[nH]cc(CCc3ccc(C(=O)N[C@@H](CCC(=O)O)C(=O)O)cc3)c2c(=O)[nH]1 [Pemetrexed] (partner 0.2 µM): the relative viability was found to be 0.227.
On the same count and under the same terms, with `Nc1cccc2c1CN(C1CCC(=O)NC1=O)C2=O` (stereo not drawn) [Lenalidomide] + CC(=O)c1c(C)c2cnc(Nc3ccc(N4CCNCC4)cn3)nc2n(C2CCCC2)c1=O [Palbociclib] (partner 0.5 µM) the figure was 0.845; with `Nc1cccc2c1CN(C1CCC(=O)NC1=O)C2=O` (stereo not drawn) [Lenalidomide] + O=C(CCCCCCC(=O)Nc1ccccc1)NO [Vorinostat] (partner 1 µM), 0.353; with `Nc1cccc2c1CN(C1CCC(=O)NC1=O)C2=O` (stereo not drawn) [Lenalidomide] + COc1cccc2cc(-c3nc([C@H]4CC[C@H](C(=O)O)CC4)n4ncnc(N)c34)[nH]c12 [OSI-027] (partner 0.5 µM), 0.191.

Still in this assay, the particulars now being: first compound 8 µM.
As for `Nc1cccc2c1CN(C1CCC(=O)NC1=O)C2=O` (stereo not drawn) [Lenalidomide] + Nc1ncn([C@H]2C[C@H](O)[C@@H](CO)O2)c(=O)n1 [Decitabine] (partner 2 µM), the relative viability came to 0.187.
`Nc1cccc2c1CN(C1CCC(=O)NC1=O)C2=O` (stereo not drawn) [Lenalidomide] + N=C(N)NC(=N)NCCc1ccccc1 [Phenformin] (partner 250 µM) returned a relative viability of 0.229.
The same measure, in the same setting: under `Nc1cccc2c1CN(C1CCC(=O)NC1=O)C2=O` (stereo not drawn) [Lenalidomide] + Nc1nc2[nH]cc(CCc3ccc(C(=O)N[C@@H](CCC(=O)O)C(=O)O)cc3)c2c(=O)[nH]1 [Pemetrexed] (partner 0.2 µM) stands 0.175.
Consider `Nc1cccc2c1CN(C1CCC(=O)NC1=O)C2=O` (stereo not drawn) [Lenalidomide] + CC(=O)c1c(C)c2cnc(Nc3ccc(N4CCNCC4)cn3)nc2n(C2CCCC2)c1=O [Palbociclib] (partner 0.5 µM), for which the relative viability came to 0.649.
`Nc1cccc2c1CN(C1CCC(=O)NC1=O)C2=O` (stereo not drawn) [Lenalidomide] + O=C(CCCCCCC(=O)Nc1ccccc1)NO [Vorinostat] (partner 1 µM): the relative viability was 0.189.
On the same count and under the same terms, under `Nc1cccc2c1CN(C1CCC(=O)NC1=O)C2=O` (stereo not drawn) [Lenalidomide] + COc1cccc2cc(-c3nc([C@H]4CC[C@H](C(=O)O)CC4)n4ncnc(N)c34)[nH]c12 [OSI-027] (partner 0.5 µM) stands 0.182.

The subject of a further assay is NCI-H1437. Described as above. To be noted: first compound 0.253 µM. The procedure, abridged:
as §1
Molecule `Nc1cccc2c1CN(C1CCC(=O)NC1=O)C2=O` (stereo not drawn) [Lenalidomide] + Nc1ncn([C@H]2C[C@H](O)[C@@H](CO)O2)c(=O)n1 [Decitabine] (partner 2 µM) yielded a relative viability of 0.556.
Same read-out and setting: with `Nc1cccc2c1CN(C1CCC(=O)NC1=O)C2=O` (stereo not drawn) [Lenalidomide] + N=C(N)NC(=N)NCCc1ccccc1 [Phenformin] (partner 250 µM) the figure was 0.276; with `Nc1cccc2c1CN(C1CCC(=O)NC1=O)C2=O` (stereo not drawn) [Lenalidomide] + Nc1nc2[nH]cc(CCc3ccc(C(=O)N[C@@H](CCC(=O)O)C(=O)O)cc3)c2c(=O)[nH]1 [Pemetrexed] (partner 0.2 µM), 0.294.
The molecule `Nc1cccc2c1CN(C1CCC(=O)NC1=O)C2=O` (stereo not drawn) [Lenalidomide] + CC(=O)c1c(C)c2cnc(Nc3ccc(N4CCNCC4)cn3)nc2n(C2CCCC2)c1=O [Palbociclib] (partner 0.5 µM) displayed a relative viability of 0.331.
Consider `Nc1cccc2c1CN(C1CCC(=O)NC1=O)C2=O` (stereo not drawn) [Lenalidomide] + O=C(CCCCCCC(=O)Nc1ccccc1)NO [Vorinostat] (partner 1 µM), for which the relative viability stood at 0.825.
For the molecule `Nc1cccc2c1CN(C1CCC(=O)NC1=O)C2=O` (stereo not drawn) [Lenalidomide] + COc1cccc2cc(-c3nc([C@H]4CC[C@H](C(=O)O)CC4)n4ncnc(N)c34)[nH]c12 [OSI-027] (partner 0.5 µM), the relative viability came to 0.888.

Still in this assay, the particulars now being: first compound 0.8 µM.
In turn, `Nc1cccc2c1CN(C1CCC(=O)NC1=O)C2=O` (stereo not drawn) [Lenalidomide] + Nc1ncn([C@H]2C[C@H](O)[C@@H](CO)O2)c(=O)n1 [Decitabine] (partner 2 µM) came in with a relative viability of 0.5.
The molecule `Nc1cccc2c1CN(C1CCC(=O)NC1=O)C2=O` (stereo not drawn) [Lenalidomide] + N=C(N)NC(=N)NCCc1ccccc1 [Phenformin] (partner 250 µM) registered a relative viability of 0.248.
The same measure, in the same setting: under `Nc1cccc2c1CN(C1CCC(=O)NC1=O)C2=O` (stereo not drawn) [Lenalidomide] + Nc1nc2[nH]cc(CCc3ccc(C(=O)N[C@@H](CCC(=O)O)C(=O)O)cc3)c2c(=O)[nH]1 [Pemetrexed] (partner 0.2 µM) stands 0.33.
